The results in this text go back to US10059701B2 (Merck Patent GmbH, priority 2015, dated 2018).

By IC50 is commonly meant the point on the concentration scale where inhibition reaches its midpoint.

The structures appear in SMILES notation. Where only a bound is given, the exact number is not on record here.

In one test the target is T1, IRAK1 (Homo sapiens, UniProt P51617).
T1 construct: His-TEV-IRAK1 (194-712); His (N); TEV cleavage site (N)
Description: IRAK1 enzymatic assay (ADP-Glo luminescence). The test is classed as biochemical. Conditions: purified human recombinant His-TEV-IRAK1 (194-712). Here is the method:
IRAK1 is a human purified recombinant enzyme (His-TEV-IRAK1 (194-712))
In this assay, IRAK1 hydrolyses ATP and autophosphorylates. Measurement of IRAK-1 inhibition is performed in 384-well format based on luminescence assay (ADP-Glo™ Kinase Assay from Promega). Purified human recombinant IRAK1 (0.3 μg/ml) and serial diluted compounds in DMSO (range of concentration from 10 μM to 0.5 nM) or controls (1% DMSO) are incubated for 15 minutes at RT in assay buffer containing 50 mM Hepes pH 7.0, Fatty acid-free BSA 0.1%, Dithiothreitol (DTT) 2 mM, MgCl2 10 mM, EGTA 0.5 mM, Triton X-100 0.01%. The kinase reaction is then initiated by the addition of ATP […] After 2 hours of incubation at RT, the reaction is stopped and the unconsumed ATP depleted by the addition of ADP-Glo™ Reagent according to supplier instructions. After 40 minutes of incubation at RT, the Kinase Detection Reagent is then added to the assay plate according to supplier instructions. After 20 minutes of incubation at RT, the luminescence signal is measured with a luminometer (PerkinElmer Envision or equivalent reader).
Background: ADP-Glo turns the ADP formed in a reaction into a luminescent signal.

The next test addresses T2, IRAK4 (Homo sapiens, UniProt Q9NWZ3).
T2 construct: His-TEV-IRAK4 (1-460); His (N); TEV cleavage site (N)
T2 sequence (Q9NWZ3 1-460): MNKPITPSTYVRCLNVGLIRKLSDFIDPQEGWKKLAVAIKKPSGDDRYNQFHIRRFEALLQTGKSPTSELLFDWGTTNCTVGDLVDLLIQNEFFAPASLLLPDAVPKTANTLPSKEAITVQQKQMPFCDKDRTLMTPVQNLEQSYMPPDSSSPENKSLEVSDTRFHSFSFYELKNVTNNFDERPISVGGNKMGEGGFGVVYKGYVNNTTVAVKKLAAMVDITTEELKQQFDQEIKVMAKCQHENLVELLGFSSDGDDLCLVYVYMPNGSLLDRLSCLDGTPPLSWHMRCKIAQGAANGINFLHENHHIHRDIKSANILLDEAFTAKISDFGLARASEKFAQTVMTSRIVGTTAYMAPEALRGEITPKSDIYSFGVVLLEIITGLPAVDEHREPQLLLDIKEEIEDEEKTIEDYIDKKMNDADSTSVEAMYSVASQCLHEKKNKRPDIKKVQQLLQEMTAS
Put plainly: IRAK4 enzymatic assay (ADP-Glo luminescence). The class given is biochemical. Conditions: purified human recombinant His-TEV-IRAK4 (1-460), ATP 2 μM. As for the experimental part:
IRAK4 is a human purified recombinant enzyme (His-TEV-IRAK4 (1-460)).
In this assay, IRAK4 hydrolyses ATP, autophosphorylates and phosphorylates a Serine/Threonine generic peptidic substrate (STK: 61ST1BLC from CisBio International). Measurement of IRAK-4 inhibition is performed in 384-well format based on a luminescence assay (ADP-Glo™ Kinase Assay from Promega). Purified human recombinant IRAK4 (0.3 μg/ml) and serial diluted compounds in DMSO (range of concentration from 10 μM to 0.5 nM) or controls (1% DMSO) are incubated for 15 minutes at RT in assay buffer containing 50 mM Hepes pH 7.0, Fatty acid-free BSA 0.1%, Dithiothreitol (DTT) 2 mM, MgCl2 10 mM, EGTA 0.5 mM, Triton X-100 0.01%, MnCl2 5 mM. The kinase reaction is then initiated by the addition of ATP (2 μM) and the peptidic substrate STK1-biotin peptide (300 nM). After 2 hours of incubation at RT, the reaction is stopped and the unconsumed ATP depleted by the addition of ADP-Glo™ Reagent according to supplier instructions. After 40 minutes of incubation at RT, the Kinase Detection Reagent is then added to the assay plate according to supplier instructions. After 20 minutes of incubation at RT, the luminescence signal is measured with a plate-reading luminometer (PerkinElmer Envision or equivalent reader).

T1 sequence (P51617 194-712): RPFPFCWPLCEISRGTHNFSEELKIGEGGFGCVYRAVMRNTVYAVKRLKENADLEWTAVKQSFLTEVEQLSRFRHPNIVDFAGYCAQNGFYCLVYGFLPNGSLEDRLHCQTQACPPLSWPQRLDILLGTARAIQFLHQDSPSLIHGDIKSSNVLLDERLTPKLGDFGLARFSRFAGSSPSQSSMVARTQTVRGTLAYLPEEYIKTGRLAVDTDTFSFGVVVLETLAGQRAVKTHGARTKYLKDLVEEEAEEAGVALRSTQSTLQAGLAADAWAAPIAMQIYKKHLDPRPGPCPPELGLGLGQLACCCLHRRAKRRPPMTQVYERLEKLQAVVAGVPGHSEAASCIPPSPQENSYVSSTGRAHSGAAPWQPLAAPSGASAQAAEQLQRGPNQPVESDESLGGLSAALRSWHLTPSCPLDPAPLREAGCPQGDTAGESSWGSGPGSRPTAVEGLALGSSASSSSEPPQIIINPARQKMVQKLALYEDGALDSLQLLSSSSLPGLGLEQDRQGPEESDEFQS

For the compound `O=C(/N=c1\[nH]c2cc(N3CCCOC3=O)ccc2n1CCCO)c1cccc(C(F)(F)F)c1` [Compound 33, (E)-N-(1-(3-hydroxypropyl)-5-(2-oxo-1,3-oxazinan-3-yl)-1H-benzo[d]imidazol-2(3H)-ylidene)-3-(trifluoromethyl)benzamide], the IC50 at IRAK1 and on IRAK4 was ≤ 0.1 µM throughout.

Take `NC(=O)/C=C/c1cccc(C(=O)/N=c2\[nH]c3cc(N4CCOCC4=O)ccc3n2CCCO)c1` [Compound 34, (E)-3-((E)-3-amino-3-oxoprop-1-en-1-yl)-N-(1-(3-hydroxypropyl)-5-(3-oxomorpholino)-1H-benzo[d]imidazol-2(3H)-ylidene)benzamide]: the IC50 on IRAK1 and at IRAK4 was ≤ 0.1 µM in each case.

For `O=C(/N=c1\[nH]c2cc(N3CCOCC3=O)ccc2n1CCCO)c1cccc(F)c1` [Compound 35, (E)-3-fluoro-N-(1-(3-hydroxypropyl)-5-(3-oxomorpholino)-1H-benzo[d]imidazol-2(3H)-ylidene)benzamide], the IC50 is 0.1 to 1 µM on IRAK1 and ≤ 0.1 µM at IRAK4.

Take `O=C(/N=c1\[nH]c2cc(N3CCOCC3=O)ccc2n1CCCO)c1cccc(C(=O)N2CCOCC2)c1` [Compound 36, (E)-N-(1-(3-hydroxypropyl)-5-(3-oxomorpholino)-1H-benzo[d]imidazol-2(3H)-ylidene)-3-(morpholine-4-carbonyl)benzamide]: the IC50 is 0.1 to 1 µM at IRAK1 and > 1 µM at IRAK4.

On to `O=C(/N=c1\[nH]c2cc(N3CCOCC3=O)ccc2n1CCCO)c1cccc(Br)c1` [Compound 37, (E)-3-bromo-N-(1-(3-hydroxypropyl)-5-(3-oxomorpholino)-1H-benzo[d]imidazol-2(3H)-ylidene)benzamide], for which the values for the IC50 at IRAK1 and on IRAK4 were 0.1 to 1 µM and ≤ 0.1 µM, respectively.

As for `COc1ccc(C(=O)/N=c2\[nH]c3cc(N4CCOCC4=O)ccc3n2CCCO)cc1C#N` [Compound 38, (E)-3-cyano-N-(1-(3-hydroxypropyl)-5-(3-oxomorpholino)-1H-benzo[d]imidazol-2(3H)-ylidene)-4-methoxybenzamide], the IC50 on IRAK1 and at IRAK4 was > 1 µM throughout.

As to `O=C(/N=c1\[nH]c2cc(N3CCOCC3=O)ccc2n1C1(CO)CCCCC1)c1cccc(C(F)(F)F)c1` [Compound 39, (E)-N-(1-(1-(hydroxymethyl)cyclohexyl)-5-(3-oxomorpholino)-1H-benzo[d]imidazol-2(3H)-ylidene)-3-(trifluoromethyl)benzamide], the IC50 on IRAK1 and at IRAK4 was > 1 µM each time.

As to `COc1cc2c(cc1N1CCOCC1=O)[nH]/c(=N\C(=O)c1cccc(C(F)F)c1)n2[C@H](C)CCO` [Compound 40, (R,E)-3-(difluoromethyl)-N-(1-(4-hydroxybutan-2-yl)-6-methoxy-5-(3-oxomorpholino)-1H-benzo[d]imidazol-2(3H)-ylidene)benzamide], the IC50 on IRAK1 and on IRAK4 was ≤ 0.1 µM in each case.

As for `C[C@H](CCO)n1/c(=N/C(=O)c2cccc(C#N)c2)[nH]c2cc(N3CCCOC3=O)ccc21` [Compound 42, (R,E)-3-cyano-N-(1-(4-hydroxybutan-2-yl)-5-(2-oxo-1,3-oxazinan-3-yl)-1H-benzo[d]imidazol-2(3H)-ylidene)benzamide], the figures for the IC50 at IRAK1 and at IRAK4 were 0.1 to 1 µM and ≤ 0.1 µM, respectively.

As for `C[C@H](CCO)n1/c(=N/C(=O)c2cccc(C(F)(F)F)c2)[nH]c2cc(N3CCCOC3=O)ccc21` [Compound 43, (R,E)-N-(1-(4-hydroxybutan-2-yl)-5-(2-oxo-1,3-oxazinan-3-yl)-1H-benzo[d]imidazol-2(3H)-ylidene)-3-(trifluoromethyl)benzamide], the IC50 on IRAK1 was 0.1 to 1 µM; at IRAK4, ≤ 0.1 µM.

For `C[C@H](CCO)n1/c(=N/C(=O)c2cccc(C(F)F)c2)[nH]c2cc(N3CCCOC3=O)ccc21` [Compound 44, (R,E)-3-(difluoromethyl)-N-(1-(4-hydroxybutan-2-yl)-5-(2-oxo-1,3-oxazinan-3-yl)-1H-benzo[d]imidazol-2(3H)-ylidene)benzamide], the IC50 is 0.1 to 1 µM on IRAK1 and ≤ 0.1 µM at IRAK4.

For the compound `O=C(/N=c1\[nH]c2cc(N3CCOCC3=O)ccc2n1C1CCCCC1)c1cccc(C(F)(F)F)c1` [Compound 45, (E)-N-(1-cyclohexyl-5-(3-oxomorpholino)-1H-benzo[d]imidazol-2(3H)-ylidene)-3-(trifluoromethyl)benzamide], the IC50 on IRAK1 was > 1 µM; on IRAK4 it was 0.1 to 1 µM.

Consider `O=C(/N=c1\[nH]c2cc(N3CCCNC3=O)ccc2n1CCCO)c1cccc(C(F)F)c1` [Compound 46, (E)-3-(difluoromethyl)-N-(1-(3-hydroxypropyl)-5-(2-oxotetrahydropyrimidin-1(2H)-yl)-1H-benzo[d]imidazol-2(3H)-ylidene)benzamide], for which the IC50 is 0.1 to 1 µM at IRAK1 and ≤ 0.1 µM on IRAK4.

As to `CC(=O)NCc1cccc(C(=O)/N=c2\[nH]c3cc(N4CCOCC4=O)ccc3n2CCCO)c1` [Compound 47, (E)-3-(acetamidomethyl)-N-(1-(3-hydroxypropyl)-5-(3-oxomorpholino)-1H-benzo[d]imidazol-2(3H)-ylidene)benzamide], the IC50 on IRAK1 and on IRAK4 was 0.1 to 1 µM throughout.

Turning to `N#Cc1cccc(C(=O)/N=c2\[nH]c3cc(N4CCOCC4=O)c(Br)cc3n2CCCO)c1` [Compound 48, (E)-N-(6-bromo-1-(3-hydroxypropyl)-5-(3-oxomorpholino)-1H-benzo[d]imidazol-2(3H)-ylidene)-3-cyanobenzamide], the IC50 was 0.1 to 1 µM on IRAK1 and ≤ 0.1 µM on IRAK4.

Regarding `O=C(/N=c1\[nH]c2cc(N3CCOCC3=O)c(Br)cc2n1CCCO)c1cccc(C(F)F)c1` [Compound 49, (E)-N-(6-bromo-1-(3-hydroxypropyl)-5-(3-oxomorpholino)-1H-benzo[d]imidazol-2(3H)-ylidene)-3-(difluoromethyl)benzamide], the IC50 was 0.1 to 1 µM at IRAK1 and ≤ 0.1 µM on IRAK4.

As to `O=C(/N=c1\[nH]c2cc(N3CCOCC3=O)c(Br)cc2n1CCCO)c1cccc(C(F)(F)F)c1` [Compound 50, (E)-N-(6-bromo-1-(3-hydroxypropyl)-5-(3-oxomorpholino)-1H-benzo[d]imidazol-2(3H)-ylidene)-3-(trifluoromethyl)benzamide], the IC50 on IRAK1 is 0.1 to 1 µM; at IRAK4, ≤ 0.1 µM.

As for `COc1cc2c(cc1N1CCOCC1=O)[nH]/c(=N\C(=O)c1cccc(C#N)c1)n2CC1(CO)CC1` [Compound 51, (E)-3-cyano-N-(1-((1-(hydroxymethyl)cyclopropyl)methyl)-6-methoxy-5-(3-oxomorpholino)-1H-benzo[d]imidazol-2(3H)-ylidene)benzamide], the figures for the IC50 on IRAK1 and on IRAK4 were 0.1 to 1 µM and ≤ 0.1 µM, respectively.

As to `COc1cc2c(cc1N1CCOCC1=O)[nH]/c(=N\C(=O)c1cccc(C(F)F)c1)n2CC1(CO)CC1` [Compound 52, (E)-3-(difluoromethyl)-N-(1-((1-(hydroxymethyl)cyclopropyl)methyl)-6-methoxy-5-(3-oxomorpholino)-1H-benzo[d]imidazol-2(3H)-ylidene)benzamide], the IC50 on IRAK1 and at IRAK4 was ≤ 0.1 µM in each case.

As to `COc1cc2c(cc1N1CCOCC1=O)[nH]/c(=N\C(=O)c1cccc(C(F)(F)F)c1)n2CC1(CO)CC1` [Compound 53, (E)-N-(1-((1-(hydroxymethyl)cyclopropyl)methyl)-6-methoxy-5-(3-oxomorpholino)-1H-benzo[d]imidazol-2(3H)-ylidene)-3-(trifluoromethyl)benzamide], the IC50 at IRAK1 and at IRAK4 was ≤ 0.1 µM throughout.
